From ChEMBL document CHEMBL1201862, “PubChem BioAssay data set” (2004) come the findings set out here.

SMILES strings stand for the structures. Activity calls are given as the source filed them.

Test [1] can be described thus: growth suppression of PTEN-null colon cells, dose response, cell-based, HCT116 PTEN knockout (AID 1047).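 Note: HCT116 colon tumor cells with PTEN knocked out; cells exposed to compound for 60 hours before readout; potency for loss of cell viability measured by luminescence.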 The class given is functional.
The nature of test [2]: growth suppression of beta-catenin-knockout colon cells, dose response, cell-based, HCT116, human colon tumor (AID 1045).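 Note: HCT116 colon tumor cells with beta catenin knocked out; cells exposed to compound for 60 hours.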 The class given is functional.
Test [3] can be described thus: HEp-2 cell cytotoxicity, dose response, cytotoxicity control for RSV inhibitor project, HTS (AID 2410). The class given is functional. The conditions noted are these: human respiratory syncytial virus.
The test system of the next test is INS1. Briefly: beta cell apoptosis inhibitors, cytokine rescue, dose response, luminescence, retest (AID 449756).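 Note: cell death triggered by IL-1 beta plus TNF-alpha plus IFN-gamma mixture; protective hits raise ATP signal compared with cytokine alone wells.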 The class given is functional, cell-based. To be noted: Rattus norvegicus.
The target of test [4] is T1, RNA-binding protein pos-1 (Caenorhabditis elegans, UniProt G5EF15).
T1 sequence (G5EF15 whole entry): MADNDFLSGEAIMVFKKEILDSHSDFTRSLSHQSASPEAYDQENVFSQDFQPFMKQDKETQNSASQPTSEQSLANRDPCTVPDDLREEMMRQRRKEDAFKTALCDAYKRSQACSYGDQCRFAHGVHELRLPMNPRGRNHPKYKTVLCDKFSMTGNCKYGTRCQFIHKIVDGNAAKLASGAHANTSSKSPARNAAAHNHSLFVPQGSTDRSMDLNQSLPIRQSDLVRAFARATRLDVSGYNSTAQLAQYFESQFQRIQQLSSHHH
Briefly: inhibitors of POS-1/mex-3 RNA binding, dose response, biochemical, fluorescence polarization (AID 1964).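 Note: purified POS-1 fused to maltose binding protein made in E. coli; potency of compounds blocking POS-1 binding to fluorescent RNA.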 A general note: Fluorescence polarisation rises when a labelled molecule tumbles more slowly, as on binding a larger partner.

For test [5], the target named is T2, Zinc finger protein mex-5 (Caenorhabditis elegans, UniProt Q9XUB2).
T2 sequence (Q9XUB2 whole entry): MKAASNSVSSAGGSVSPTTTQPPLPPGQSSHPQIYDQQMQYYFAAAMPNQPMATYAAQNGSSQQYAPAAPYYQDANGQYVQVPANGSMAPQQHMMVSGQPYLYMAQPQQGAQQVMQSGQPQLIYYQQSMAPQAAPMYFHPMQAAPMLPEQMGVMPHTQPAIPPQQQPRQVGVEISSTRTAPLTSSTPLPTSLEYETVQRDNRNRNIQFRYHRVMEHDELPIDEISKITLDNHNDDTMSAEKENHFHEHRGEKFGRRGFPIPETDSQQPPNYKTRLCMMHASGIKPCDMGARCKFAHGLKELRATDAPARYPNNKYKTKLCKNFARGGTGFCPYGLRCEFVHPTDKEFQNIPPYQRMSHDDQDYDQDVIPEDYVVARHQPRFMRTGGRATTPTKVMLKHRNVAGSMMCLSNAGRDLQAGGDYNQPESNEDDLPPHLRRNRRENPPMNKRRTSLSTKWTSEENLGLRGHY
Briefly: MEX-5/TCR-2 RNA interaction inhibitors, dose response, biochemical, C. elegans, fluorescence polarization (AID 1960).

In test [6] the target is T3, Fatty acid synthase (Homo sapiens, UniProt P49327). Briefly: FAS thioesterase domain inhibitors, dose response, biochemical, endpoint fluorescence intensity, uHTS hits (AID 624327).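 Note: fluorescence from hydrolysis of an O-methyl fluorescein acyl ester substrate by the enzyme.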 The class given is functional.
T3 sequence (P49327 whole entry, the tested form may be a part): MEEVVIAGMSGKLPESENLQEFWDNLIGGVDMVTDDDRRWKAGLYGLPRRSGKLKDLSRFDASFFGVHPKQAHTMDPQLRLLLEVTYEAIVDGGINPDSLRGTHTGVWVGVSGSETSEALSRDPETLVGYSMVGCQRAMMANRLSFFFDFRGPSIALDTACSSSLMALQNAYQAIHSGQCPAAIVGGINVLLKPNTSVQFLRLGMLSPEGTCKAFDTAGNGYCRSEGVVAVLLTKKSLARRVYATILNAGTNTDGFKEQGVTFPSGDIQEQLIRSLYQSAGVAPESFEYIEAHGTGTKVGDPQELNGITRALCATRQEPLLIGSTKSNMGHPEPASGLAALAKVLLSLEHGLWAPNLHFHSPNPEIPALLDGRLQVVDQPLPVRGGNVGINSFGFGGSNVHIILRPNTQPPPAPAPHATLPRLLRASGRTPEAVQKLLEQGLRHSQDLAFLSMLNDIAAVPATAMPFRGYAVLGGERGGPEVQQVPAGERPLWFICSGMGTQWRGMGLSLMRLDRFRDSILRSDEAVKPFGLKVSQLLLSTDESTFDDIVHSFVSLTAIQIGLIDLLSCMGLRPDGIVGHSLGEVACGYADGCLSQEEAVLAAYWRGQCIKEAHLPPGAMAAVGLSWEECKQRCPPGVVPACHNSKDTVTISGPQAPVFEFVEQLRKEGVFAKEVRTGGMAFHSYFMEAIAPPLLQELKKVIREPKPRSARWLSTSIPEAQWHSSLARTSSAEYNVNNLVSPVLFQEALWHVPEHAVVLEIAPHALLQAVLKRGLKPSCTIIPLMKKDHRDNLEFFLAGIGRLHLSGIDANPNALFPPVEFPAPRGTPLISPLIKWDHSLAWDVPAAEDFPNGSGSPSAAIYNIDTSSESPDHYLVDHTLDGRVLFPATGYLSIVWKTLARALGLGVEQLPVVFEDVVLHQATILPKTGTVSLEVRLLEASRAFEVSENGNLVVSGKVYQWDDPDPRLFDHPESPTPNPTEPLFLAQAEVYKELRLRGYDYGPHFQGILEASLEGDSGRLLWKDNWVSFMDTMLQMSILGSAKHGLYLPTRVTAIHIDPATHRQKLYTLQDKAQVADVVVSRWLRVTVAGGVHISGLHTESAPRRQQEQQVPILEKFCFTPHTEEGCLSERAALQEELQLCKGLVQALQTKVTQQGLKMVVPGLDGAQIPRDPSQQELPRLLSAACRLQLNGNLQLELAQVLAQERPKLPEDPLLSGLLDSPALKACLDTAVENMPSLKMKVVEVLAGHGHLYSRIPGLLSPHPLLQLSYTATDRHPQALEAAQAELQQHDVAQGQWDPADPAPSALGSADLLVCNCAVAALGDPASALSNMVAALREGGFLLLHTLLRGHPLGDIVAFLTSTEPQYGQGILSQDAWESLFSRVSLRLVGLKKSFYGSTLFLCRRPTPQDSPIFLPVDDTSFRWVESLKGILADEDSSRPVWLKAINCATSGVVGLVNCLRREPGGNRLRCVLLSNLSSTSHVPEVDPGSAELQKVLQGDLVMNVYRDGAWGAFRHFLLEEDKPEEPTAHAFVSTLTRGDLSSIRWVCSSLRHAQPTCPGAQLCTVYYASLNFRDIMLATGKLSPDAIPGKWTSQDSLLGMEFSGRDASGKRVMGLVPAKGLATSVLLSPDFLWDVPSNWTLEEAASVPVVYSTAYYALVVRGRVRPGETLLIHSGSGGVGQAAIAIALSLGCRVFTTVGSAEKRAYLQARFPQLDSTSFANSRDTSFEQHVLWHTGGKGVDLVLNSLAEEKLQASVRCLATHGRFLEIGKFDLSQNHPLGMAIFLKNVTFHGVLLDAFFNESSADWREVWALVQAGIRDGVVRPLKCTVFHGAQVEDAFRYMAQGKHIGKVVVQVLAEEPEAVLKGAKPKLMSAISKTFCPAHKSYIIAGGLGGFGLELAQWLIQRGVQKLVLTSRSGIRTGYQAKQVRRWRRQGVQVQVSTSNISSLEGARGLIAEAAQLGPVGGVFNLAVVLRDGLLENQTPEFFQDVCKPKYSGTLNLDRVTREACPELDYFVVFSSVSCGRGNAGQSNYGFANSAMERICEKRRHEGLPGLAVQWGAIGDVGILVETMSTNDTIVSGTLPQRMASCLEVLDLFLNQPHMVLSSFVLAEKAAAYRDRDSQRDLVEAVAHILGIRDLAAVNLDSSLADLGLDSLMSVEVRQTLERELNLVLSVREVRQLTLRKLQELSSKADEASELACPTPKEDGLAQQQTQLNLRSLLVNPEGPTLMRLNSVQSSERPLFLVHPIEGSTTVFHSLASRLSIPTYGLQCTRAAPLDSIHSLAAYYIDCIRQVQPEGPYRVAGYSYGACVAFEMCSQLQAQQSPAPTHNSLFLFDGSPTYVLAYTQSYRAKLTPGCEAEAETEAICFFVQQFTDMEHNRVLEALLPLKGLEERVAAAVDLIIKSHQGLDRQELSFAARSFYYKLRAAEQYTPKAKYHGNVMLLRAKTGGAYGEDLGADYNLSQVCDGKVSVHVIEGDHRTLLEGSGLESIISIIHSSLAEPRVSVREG
Test [7] deals with T3, Fatty acid synthase. The test is described as follows: FAS thioesterase domain inhibitors, dose response, biochemical, kinetic fluorescence intensity (AID 624326).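 Note: rate of fluorescence rise from hydrolysis of a fluorogenic O-methyl fluorescein ester substrate.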 The class given is functional.
Another test addresses Cytochrome P450 2D6 (Homo sapiens, UniProt P10635).
Test [8] is described as follows: Luminescence Cell-Based Dose Response HTS to Identify Inhibitors of 5'UTR Stem-Loop Driven Prion Protein mRNA Translation in H4 Neuroglioblastoma Cells. [Related pubchem assays: 1827 (Project Summary), 1813 (Primary HTS)]. The class given is functional.
The nature of test [9]: microbe, parasite or virus in culture. The class given is functional. The conditions noted are these: Mycobacterium tuberculosis.
Test [10] can be described thus: inhibitors of intracellular T. cruzi replication, confirmation, NIH3T3 host cells, beta-gal luminescence (AID 2044).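 Note: intracellular parasites grown in NIH/3T3 mouse fibroblasts as host cells; luminescent beta-galactosidase reporter signal from transgenic T. cruzi replicating inside host cells; inhibitors lower the luminescence signal.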 The class given is functional, cell-based.
Test [11] can be described thus: cytotoxicity toward NIH3T3 fibroblasts, dose response, counter-screen, cell-based, ATP luminescence, mouse fibroblasts (AID 2010).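 Note: cells exposed to compound for about 90 hours before reading.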 The class given is functional. On the technique in general: A counterscreen serves to expose hits that act by an unwanted route or on another target.
Test [12] concerns the target T4, Corticotropin-releasing factor receptor 2/Corticotropin-releasing factor-binding protein (Homo sapiens, UniProt P24387+Q13324).
T4 sequence (Q13324 whole entry): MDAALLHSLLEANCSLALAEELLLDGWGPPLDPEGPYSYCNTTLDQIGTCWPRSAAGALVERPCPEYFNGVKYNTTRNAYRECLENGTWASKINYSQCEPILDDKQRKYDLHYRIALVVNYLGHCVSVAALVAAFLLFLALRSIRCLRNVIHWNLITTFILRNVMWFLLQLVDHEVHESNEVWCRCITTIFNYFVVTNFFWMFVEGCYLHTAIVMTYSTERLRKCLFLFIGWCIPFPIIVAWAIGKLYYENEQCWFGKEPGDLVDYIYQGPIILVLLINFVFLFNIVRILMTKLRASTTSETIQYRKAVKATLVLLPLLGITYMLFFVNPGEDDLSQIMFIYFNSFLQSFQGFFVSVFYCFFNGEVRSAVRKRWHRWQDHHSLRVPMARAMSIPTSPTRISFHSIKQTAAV
T4 sequence (P24387 whole entry): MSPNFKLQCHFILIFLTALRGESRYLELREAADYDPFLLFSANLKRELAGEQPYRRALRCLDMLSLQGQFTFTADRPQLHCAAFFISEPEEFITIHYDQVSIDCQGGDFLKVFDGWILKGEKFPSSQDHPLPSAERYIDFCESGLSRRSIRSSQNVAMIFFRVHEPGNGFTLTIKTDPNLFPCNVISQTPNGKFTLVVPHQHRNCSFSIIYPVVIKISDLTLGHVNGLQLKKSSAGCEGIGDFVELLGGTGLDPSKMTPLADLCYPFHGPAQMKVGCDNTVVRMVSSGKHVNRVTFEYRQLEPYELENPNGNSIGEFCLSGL
Briefly: Dose Response confirmation of uHTS hits for small molecule antagonists of the CRF-binding protein and CRF-R2 receptor complex. The class given is functional. To be noted: read-out: IC50_Mean.

Test [13] has as its target T4, Corticotropin-releasing factor receptor 2/Corticotropin-releasing factor-binding protein. The test is described as follows: activators of CRF receptor 2 with binding protein – uHTS hits, confirmation (AID 602473). To be noted: read-out: EC50_Mean. The class given is functional.

Chain of Cytochrome P450 2D6 (P10635 whole entry): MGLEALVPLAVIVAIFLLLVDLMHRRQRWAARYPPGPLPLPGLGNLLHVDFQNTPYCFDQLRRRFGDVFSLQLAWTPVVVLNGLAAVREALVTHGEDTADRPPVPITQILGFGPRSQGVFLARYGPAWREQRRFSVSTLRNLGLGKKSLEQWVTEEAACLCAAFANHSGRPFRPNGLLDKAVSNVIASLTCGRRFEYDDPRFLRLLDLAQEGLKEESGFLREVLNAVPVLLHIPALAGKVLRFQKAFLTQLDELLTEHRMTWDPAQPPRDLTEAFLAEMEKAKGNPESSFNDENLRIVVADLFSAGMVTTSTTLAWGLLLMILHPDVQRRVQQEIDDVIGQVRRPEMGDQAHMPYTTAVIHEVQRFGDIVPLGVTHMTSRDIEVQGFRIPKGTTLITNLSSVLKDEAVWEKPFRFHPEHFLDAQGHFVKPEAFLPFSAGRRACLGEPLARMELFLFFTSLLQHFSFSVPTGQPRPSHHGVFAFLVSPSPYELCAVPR

Turning to `O=[N+]([O-])c1ccccc1-c1cc(-c2cc(Cl)ccc2O)n[nH]1`, the EC50 is 19.5 µM (active) in [1] and 27 µM (active) in test [2].
The AC50 is the concentration giving half of the maximal activity seen. For `Nc1c(C(=O)Nc2ccc(S(=O)(=O)N3CCCC3)cc2)sc2nc3cc4c(cc3cc12)CCC4`, the CC50 in test [3] is 27.9 µM (active). Further, the EC50 in test [1] is 4.9 µM (active); in test [2] it was 4.81 µM (active). Moreover, the AC50 in the test on INS1 was 3.29 µM (active).
Turning to `O=C(COC(=O)c1[nH]nc2ccccc12)NC(=O)NC12CC3CC(CC(C3)C1)C2`, the EC50 in test [1] is 14.8 µM (active); in test [2], 22.1 µM (active).
`CC1=C(C#N)C(=O)N(C)C(=O)/C1=C\N`: the EC50 in test [4] and in test [5] was > 300 µM (not active) each time.
Turning to `Cc1cc(C)c(Cn2cnc(-c3ccc([N+](=O)[O-])cc3)c2)c(C)c1`, the results for the IC50 on Fatty acid synthase [6] and on Fatty acid synthase [7] were 12.9 µM (active) and 12.6 µM (active), respectively. Besides, the AC50 on Cytochrome P450 2D6 is 28.2 µM (inconclusive).
Consider `COc1ccc(C2C(C#N)=C(N)OC3=C2C(=O)CC(C)(C)C3)c(OC)c1OC` (stereo unspecified), for which the EC50 in [4] and in test [5] was > 300 µM (not active) in each case.
Regarding `CN(C)c1ccc(-c2noc(-c3ccccc3O)n2)cc1`, in test [8], the EC50 was 10.5 µM (inconclusive).
As for `CC1CCCC(C)N1/N=C/c1c[nH]c2ccc(Br)cc12` (stereo unspecified), in [9], the CC50 was 24.4 µM (active).
`Cc1ccc(OCC(=O)Nc2ccc(O)c(-c3nc4ccccc4o3)c2)cc1`: the values for the EC50 in [1] and in [2] were 26.8 µM (active) and 32.7 µM (active), respectively.
With `C=CCN=C(S)N1CCN(c2cccc(C(F)(F)F)c2)CC1`, the EC50 in test [4] and in test [5] was > 300 µM (not active) in each case.
`COc1ccc(-c2csc(NC(C)c3nc4cc(Cl)c(N5CCCCC5)cc4n3CCCO)n2)cc1` (stereo unspecified): in test [9], the CC50 is > 40 µM (active).
For `CC(Cc1cccs1)NC(=O)Nc1ccc(Cl)c(Cl)c1` (stereo unspecified), the EC50 in test [1] is 17.4 µM (active); in [2], 22.6 µM (active).
The corresponding values for `O=C(CNc1cccc2ccccc12)N/N=C/C(Br)=C/c1ccccc1` are 22.9 µM (active) and 25.8 µM (active).
With `O=C(Cc1ccc([N+](=O)[O-])cc1)Nc1cc(C(F)(F)F)cc(C(F)(F)F)c1`, the values for the EC50 in test [10] and in [11] were 2.18 µM (active) and 7.77 µM (active), respectively. In [9], the CC50 is 8.99 µM (active).
Regarding `CCCCNC(=O)C1CC(c2c(Cl)cccc2Cl)=NO1` (stereo unspecified), the results for the EC50 in test [1] and in [2] were 21.8 µM (active) and 29.6 µM (active), respectively.
On to `CC(C)(C)c1nc(SCC(=O)Nc2nc3c(s2)CCCC3)c2ccccc2n1`, for which the figures for the EC50 in test [10] and in test [11] were 1.45 µM (active) and 12.5 µM (active), respectively. Also, in [9], the CC50 was 38.7 µM (active).
As to `COc1ccc(C(=O)Nc2nc(-c3ccc([N+](=O)[O-])cc3)c(-c3ccccc3)s2)cc1`, the EC50 in test [4] and in test [5] was > 300 µM (not active) throughout.
As for `COC1=CC(=O)c2ccccc2C1=O` [2-Methoxy-1,4-naphthoquinone], in [9], the CC50 is 12.7 µM (active).
In the case of `NC(=S)N/N=C/c1ccc(-c2ccc(SC(F)F)cc2)o1`, the EC50 in [10] is 0.895 µM (active); in test [11], 12.7 µM (active); in [13], > 53 µM (inactive). Besides, the results for the IC50 (in [12]; on Fatty acid synthase [6]; on Fatty acid synthase [7]) were > 47.1 µM (inactive), 16.9 µM (active) and 80 µM (inactive), respectively.
As to `CCc1ccc2oc(-c3cc(/N=C/c4cccc(OC)c4O)ccc3O)nc2c1`, the EC50 in test [10] is 2.45 µM (active); in [11], > 30 µM (not active). Moreover, the CC50 in [9] is > 40 µM (active).
